This passage reports IC50 results from ChEMBL document CHEMBL3867446, “Sulfoureido Lipopeptides from the Marine Sponge Discodermia kiiensis” (J Nat Prod, 2016).

The term IC50 denotes the concentration at which inhibition is half-maximal. A lower IC50 goes with greater potency in that assay.

This assay can be described thus: Cytotoxicity against mouse P388 cells after 3 days by MTT assay. The class given is functional, cell-based. Particulars: P388, 72 h. Background: Formazan colour is commonly taken as a measure of viable cells.
In the case of `CC/C=C1/NC(=O)/C=C/[C@H](C(C)C)OC(=O)C(C)(C)[C@H](C[C@H](/C=C/C=C/C/C=C\CCCC)OC)OC(=O)CNC(=O)[C@H](CNC(N)=O)NC(=O)CNC(=O)[C@@H](CCCNC(=O)NS(=O)(=O)O)NC1=O`, the IC50 was 30 µM.
As to `CC/C=C1/NC(=O)/C=C/[C@H](C(C)C)OC(=O)C(C)(C)[C@H](C[C@H](/C=C/C=C/C/C=C\CCC(C)C)OC)OC(=O)CNC(=O)[C@H](CNC(N)=O)NC(=O)CNC(=O)[C@@H](CCCNC(=O)NS(=O)(=O)O)NC1=O`, the IC50 came to 15 µM.
To `CC/C=C1/NC(=O)/C=C/[C@H]([C@@H](C)CC)OC(=O)C(C)(C)[C@H](C[C@H](/C=C/C=C/C/C=C\CCC(C)C)OC)OC(=O)CNC(=O)[C@H](CNC(N)=O)NC(=O)CNC(=O)[C@@H](CCCNC(=O)NS(=O)(=O)O)NC1=O` belongs 29 µM; to `CC/C=C1/NC(=O)/C=C/[C@H](C(C)C)OC(=O)C(C)(C)[C@H](C[C@H](/C=C/C=C/C/C=C\CCC(C)C)OC)OC(=O)CNC(=O)[C@H](CNC(N)=O)NC(=O)CNC(=O)[C@@H](CCCNC(N)=O)NC1=O`, 36 µM.
